Test results reported in patent US10828316B2, “Method of treating bacterial infections” (priority 2016, dated 2020).
Read-outs that look alike come from different tables or passages of the source. Each block holds one compound with its values, some of them ahead of it.

What was measured:
S. aureus strain no 13 = assay: MIC; conditions: S. aureus strain 13, trimethoprim 2 μg/ml
P. aeruginosa EN015 = assay: MIC; type: cell-based, Pseudomonas aeruginosa; conditions: Pseudomonas aeruginosa
P. aeruginosa EN0004 = assay: MIC; type: cell-based
E. coli EN013 = assay: MIC; type: cell-based, Escherichia coli; conditions: Escherichia coli
A. baumannii EN0007 = assay: MIC; type: cell-based, A. baumanii
K. pneumoniae EN0006 = assay: MIC; type: cell-based; conditions: in didanosine+trimethoprim+uridine combination
E. coli strain no 2 = assay: MIC; conditions: Escherichia coli, NO2, read-out: MIC Didanosine, E. coli strain 2
K. pneumoniae EN011 = assay: MIC; type: cell-based, Klebsiella pneumoniae; conditions: Klebsiella pneumoniae
E. coli EN0001 = assay: MIC; type: cell-based
E. coli EN001 = assay: MIC; type: cell-based, Escherichia coli
P. aeruginosa EN0459 = assay: MIC; type: cell-based, Pseudomonas aeruginosa; conditions: Pseudomonas aeruginosa, Combination 2, read-out: MIC, thymidine concentration
A. baumannii EN007 = assay: MIC; type: cell-based, Acinetobacter baumannii; conditions: Acinetobacter baumannii, Combination 2, read-out: MIC, thymidine concentration
K. pneumoniae EN006 = assay: MIC; type: cell-based, Klebsiella pneumoniae; conditions: Klebsiella pneumoniae, Combination 2, read-out: MIC, thymidine concentration
P. aeruginosa EN005 = assay: MIC; type: cell-based, Pseudomonas aeruginosa; conditions: Pseudomonas aeruginosa, Combination 2, read-out: MIC, thymidine concentration
E. coli EN003 = assay: MIC; type: cell-based, Escherichia coli; conditions: Escherichia coli, Combination 2, read-out: MIC, thymidine concentration
K. oxytoca EN0392 = assay: MIC; type: cell-based, Klebsiella oxytoca
Citrobacter sp. EN0465 = assay: MIC; type: cell-based; conditions: Combination 2, read-out: MIC, thymidine concentration
A. baumannii EN016 = assay: MIC; type: cell-based, Acinetobacter baumannii; conditions: Acinetobacter baumannii, Combination 2, read-out: MIC, thymidine concentration
E. coli B EN0458 = assay: MIC; type: cell-based, Escherichia coli B; conditions: Escherichia coli, BEN0458, Combination 2, read-out: MIC, thymidine concentration
S. epidermidis EN0456 = assay: MIC; type: cell-based, Staphylococcus epidermidis; conditions: Staphylococcus epidermidis, Combination 2, read-out: MIC, thymidine concentration
P. aeruginosa EN004 = assay: MIC; type: cell-based, Pseudomonas aeruginosa; conditions: Pseudomonas aeruginosa, Combination 2, read-out: MIC, thymidine concentration
A. baumannii EN017 = assay: MIC; type: cell-based, Acinetobacter baumannii; conditions: Acinetobacter baumannii; A. baumannii EN017; Combination 2; read-out: MIC, thymidine concentration
S. marescens EN0454 = assay: MIC; type: cell-based, Serratia marescens; conditions: Serratia, Combination 2, read-out: MIC, thymidine concentration
P. aeruginosa EN014 = assay: MIC; type: cell-based, Pseudomonas aeruginosa; conditions: Pseudomonas aeruginosa, Combination 2, read-out: MIC, thymidine concentration
S. aureus EN008 = assay: MIC; type: cell-based, Staphylococcus aureus; conditions: Staphylococcus aureus, Combination 2, read-out: MIC, thymidine concentration
P. mirabilis ST19 EN0445 = assay: MIC; type: cell-based, Proteus mirabilis; conditions: Proteus mirabilis, ST19EN0445, Combination 2, read-out: MIC, thymidine concentration
M. luteus EN0455 = assay: MIC; type: cell-based, Micrococcus luteus; conditions: Micrococcus luteus, Combination 2, read-out: MIC, thymidine concentration
S. typhimurium EN0466 = assay: MIC; type: cell-based, Salmonella typhimurium
E. aerogenes EN0461 = assay: MIC; type: cell-based, Enterobacter aerogenes; conditions: Klebsiella aerogenes, Combination 2, read-out: MIC, thymidine concentration
P. aeruginosa EN0422 = assay: MIC; type: cell-based, Pseudomonas aeruginosa; conditions: Pseudomonas aeruginosa, Combination 2, read-out: MIC, thymidine concentration
[1] = test system: A. pittii or A. nosocomialis EN0180; assay: MIC; type: cell-based, Acinetobacter pittii or nosocomialis; conditions: Combination 2, read-out: MIC, thymidine concentration
P. mirabilis EN0457 = assay: MIC; type: cell-based, Proteus mirabilis; conditions: Proteus mirabilis, Combination 2, read-out: MIC, thymidine concentration
E. coli EN002 = assay: MIC; type: cell-based, Escherichia coli
K. pneumoniae EN0463 = assay: MIC; type: cell-based, Klebsiella pneumoniae; conditions: Klebsiella pneumoniae, Combination 2, read-out: MIC, thymidine concentration
E. coli EN012 = assay: MIC; type: cell-based, Escherichia coli; conditions: Escherichia coli, Combination 2, read-out: MIC, thymidine concentration
K. pneumoniae EN010 = assay: MIC; type: cell-based, Klebsiella pneumoniae; conditions: Klebsiella pneumoniae, Combination 2, read-out: MIC, thymidine concentration
P. aeruginosa EN0460 = assay: MIC; type: cell-based, Pseudomonas aeruginosa; conditions: Pseudomonas aeruginosa, Combination 2, read-out: MIC, thymidine concentration
S. sonnei APV00908 = assay: MIC; type: cell-based; conditions: S. sonnei APV00908
E. coli EN0135 = assay: MIC; type: cell-based; conditions: in AZT+trimethoprim+uridine combination
E. coli EN0136 = assay: MIC; type: cell-based; conditions: in AZT+trimethoprim+uridine combination
K. pneumoniae EN0143 = assay: MIC; type: cell-based
E. coli EN0138 = assay: MIC; type: cell-based; conditions: in AZT+trimethoprim+uridine combination
K. pneumoniae EN0437 = assay: MIC; type: cell-based
K. pneumoniae EN0436 = assay: MIC; type: cell-based; conditions: in AZT+trimethoprim+uridine combination
[2] = in vivo; cited from earlier work
S. flexneri APV00907 = assay: MIC; type: cell-based; conditions: S. flexneri APV00907
S. flexneri APV00906 = assay: MIC; type: cell-based; conditions: S. flexneri APV00906; in FdUrd+trimethoprim+uridine combination
[3] = test system: Helicobacter pylori ATTC43504; assay: MIC; type: cell-based; conditions: in AZT+trimethoprim+uridine combination
Description: (§1) Inhibition of Heliobacter is important in view of increasing resistance and its association to gastric cancer.

[4] = test system: Helicobacter pylori APV00918; assay: MIC; type: cell-based; conditions: in FdUrd+trimethoprim+uridine combination
Description: as §1

K. pneumoniae EN0401 = assay: MIC; type: cell-based
K. pneumoniae EN0142 = assay: MIC; type: cell-based; conditions: in AZT+trimethoprim+uridine combination
[5] = in didanosine+trimethoprim+uridine combination
[6] = EN013, E. coli EN013, in didanosine+trimethoprim+uridine combination
[7] = EN011, K. pneumoniae EN011, in didanosine+trimethoprim+uridine combination
[8] = Escherichia coli, Combination 2, read-out: MIC, thymidine concentration
[9] = in AZT+trimethoprim+uridine combination
[10] = in FdUrd+trimethoprim+uridine combination

- MIC BrdUrd (S. aureus strain no 13; uridine 10 μg/ml): ≤2 µg/mL
- MIC BrdUrd (S. aureus strain no 13; uridine 100 μg/ml): ≤2 µg/mL
SMILES: O=c1[nH]c(=O)n([C@H]2C[C@H](O)[C@@H](CO)O2)cc1Br [BrdUrd]

SMILES: O=c1[nH]cnc2c1ncn2[C@H]1CC[C@@H](CO)O1 [Didanosine, didanosine]
- MIC (P. aeruginosa EN015; EN015, P. aeruginosa EN015, in didanosine+trimethoprim+uridine combination): 1 µg/mL
- MIC (P. aeruginosa EN0004; [5]): >4 µg/mL
- MIC (E. coli EN013; [6]): 0.016 µg/mL
- MIC (A. baumannii EN0007; [5]): >4 µg/mL
- MIC (K. pneumoniae EN0006): 0.5 µg/mL
- MIC (E. coli strain no 2; trimethoprim 0, uridine 0 μg/ml): > 30 µg/mL
- MIC (E. coli strain no 2; trimethoprim 0, uridine 10 μg/ml): > 30 µg/mL
- MIC (E. coli strain no 2; trimethoprim 0, uridine 100 μg/ml): > 30 µg/mL
- MIC (E. coli strain no 2; trimethoprim 1 μg/ml, uridine 0 μg/ml): > 2.5 µg/mL
- MIC (E. coli strain no 2; trimethoprim 1 μg/ml, uridine 10 μg/ml): > 2.5 µg/mL
- MIC (E. coli strain no 2; trimethoprim 2 μg/ml, uridine 0 μg/ml): > 2.5 µg/mL
- MIC (E. coli strain no 2; trimethoprim 2 μg/ml, uridine 10 μg/ml): > 2.5 µg/mL
- MIC (K. pneumoniae EN011; [7]): 0.125 µg/mL
- MIC (E. coli EN0001; [5]): 0.25 µg/mL
- MIC (E. coli EN001; [5]): 0.125 µg/mL

SMILES: Cc1cn([C@H]2C[C@H](O)[C@@H](CO)O2)c(=O)[nH]c1=O [Thymidine, thymidine]
- MIC (P. aeruginosa EN0459): > 120 µM
- MIC (A. baumannii EN007): > 120 µM
- MIC (K. pneumoniae EN006): 15 µM
- MIC (P. aeruginosa EN015; P. aeruginosa EN015, Combination 2, read-out: MIC, thymidine concentration): 60 µM
- MIC (P. aeruginosa EN005): 30 µM
- MIC (E. coli EN003): < 0.2 µM
- MIC (K. oxytoca EN0392; Klebsiella oxytoca, Combination 2, read-out: MIC, thymidine concentration): 15 µM
- MIC (Citrobacter sp. EN0465): > 120 µM
- MIC (A. baumannii EN016): > 120 µM
- MIC (E. coli EN013; E. coli EN013, Combination 2, read-out: MIC, thymidine concentration): < 0.2 µM
- MIC (E. coli B EN0458): < 0.2 µM
- MIC (S. epidermidis EN0456): 60 µM
- MIC (P. aeruginosa EN004): > 120 µM
- MIC (A. baumannii EN017): 30 µM
- MIC (S. marescens EN0454): > 120 µM
- MIC (P. aeruginosa EN014): > 120 µM
- MIC (S. aureus EN008): > 120 µM
- MIC (P. mirabilis ST19 EN0445): > 120 µM
- MIC (M. luteus EN0455): > 120 µM
- MIC (S. typhimurium EN0466; Salmonella enterica, Combination 2, read-out: MIC, thymidine concentration): 15 µM
- MIC (E. aerogenes EN0461): 60 µM
- MIC (P. aeruginosa EN0422): > 120 µM
- MIC (K. pneumoniae EN011; K. pneumoniae EN011, Combination 2, read-out: MIC, thymidine concentration): 8 µM
- MIC [1]: > 120 µM
- MIC (P. mirabilis EN0457): > 120 µM
- MIC (E. coli EN001; [8]): 30 µM
- MIC (E. coli EN002; [8]): 4 µM
- MIC (K. pneumoniae EN0463): 8 µM
- MIC (E. coli EN012): < 0.2 µM
- MIC (K. pneumoniae EN010): 30 µM
- MIC (P. aeruginosa EN0460): > 120 µM

SMILES: O=c1ccn([C@@H]2O[C@H](CO)[C@@H](O)[C@H]2O)c(=O)[nH]1 [Uridine, uridine]
- MIC (S. sonnei APV00908; [9]): 3 µg/mL
- MIC (S. sonnei APV00908; [10]): >400 µg/mL
- MIC (E. coli EN0135): 13 µg/mL
- MIC (E. coli EN0136): 13 µg/mL
- MIC (K. pneumoniae EN0143; [10]): >400 µg/mL
- MIC (K. pneumoniae EN0143; [5]): >400 µg/mL
- MIC (P. aeruginosa EN015; EN015, P. aeruginosa EN015, Combination 1 (AZT+trimethoprim+uridine)): 200 µg/mL
- MIC (P. aeruginosa EN015; EN015, P. aeruginosa EN015, Combination 2 (same mixed with thymidine)): 200 µg/mL
- MIC (P. aeruginosa EN015; EN015, P. aeruginosa EN015, in AZT+trimethoprim+uridine combination): 500 µg/mL
- MIC (E. coli EN0138): 1.6 µg/mL
- MIC (K. pneumoniae EN0437; [10]): >400 µg/mL
- MIC (K. pneumoniae EN0437; [5]): >400 µg/mL
- MIC (K. oxytoca EN0392; [10]): 13 µg/mL
- MIC (K. pneumoniae EN0436): 13 µg/mL
- MIC (P. aeruginosa EN0004; [9]): >400 µg/mL
- MIC (P. aeruginosa EN0004; [10]): >400 µg/mL
- MIC (P. aeruginosa EN0004; [5]): >400 µg/mL
- MIC (E. coli EN013; EN013, E. coli EN013, Combination 1 (AZT+trimethoprim+uridine)): < 0.8 µg/mL
- MIC (E. coli EN013; EN013, E. coli EN013, Combination 2 (same mixed with thymidine)): < 0.8 µg/mL
- MIC (E. coli EN013; EN013, E. coli EN013, in AZT+trimethoprim+uridine combination): < 2 µg/mL
- MIC (E. coli EN013; EN013, E. coli EN013, in FdUrd+trimethoprim+uridine combination): 1.6 µg/mL
- MIC (E. coli EN013; [6]): 1.6 µg/mL
- oral bioavailability [2]: 7-8%
- MIC (S. flexneri APV00907; [9]): 200 µg/mL
- MIC (S. flexneri APV00907; [10]): >400 µg/mL
- MIC (A. baumannii EN0007; [9]): >400 µg/mL
- MIC (A. baumannii EN0007; [10]): >400 µg/mL
- MIC (A. baumannii EN0007; [5]): >400 µg/mL
- MIC (S. flexneri APV00906): >400 µg/mL
- MIC (S. typhimurium EN0466; [10]): 13 µg/mL
- MIC [3]: 13 µg/mL
- MIC [4]: 6 µg/mL
- MIC (K. pneumoniae EN0401; [10]): >400 µg/mL
- MIC (K. pneumoniae EN0401; [5]): >400 µg/mL
- MIC (K. pneumoniae EN011; EN011, K. pneumoniae EN011, Combination 1 (AZT+trimethoprim+uridine)): 3.2 µg/mL
- MIC (K. pneumoniae EN011; EN011, K. pneumoniae EN011, in AZT+trimethoprim+uridine combination): 30 µg/mL
- MIC (K. pneumoniae EN011; EN011, K. pneumoniae EN011, in FdUrd+trimethoprim+uridine combination): 6 µg/mL
- MIC (K. pneumoniae EN011; [7]): 13 µg/mL
- MIC (E. coli EN0001; [9]): 13 µg/mL
- MIC (E. coli EN001; [10]): 13 µg/mL
- MIC (E. coli EN001; [5]): 13 µg/mL
- MIC (E. coli EN002; Combination 1 (AZT+trimethoprim+uridine)): 1.6 µg/mL
- MIC (K. pneumoniae EN0142): 13 µg/mL
